The values below come from patent US12060588B2, “Methods of editing DNA methylation” (Whitehead Institute for Biomedical Research, priority 2016, dated 2024).

The experiment concerns BDNF promoter IV / BDNF expression. Nature of the experiment: BDNF expression in mouse cortical neurons (RT-qPCR). Type of experiment: cell-based. As for the experimental part:
FIGS. 3A-3E depict targeted demethylation of BDNF promoter IV by dCas9-Tet1 to activate BDNF in neurons. FIG. 3A provides a schematic representation of targeting BDNF promoter IV by dCas9-Tet1 (dC-T) with specific gRNAs to erase methylation and activate BDNF expression. […] Bars are mean t SD of three biological replicates. FIG. 3C provides representative confocal images for BDNF induction in FIG. 3B. Top panel: BDNF expression was induced by 50 mM KCl treatment for 6 hrs. […] Stained in red for MAP2 (top two panels) or Cherry (bottom two panels), green for BDNF, blue for DAPI and grey for dCas9. Scale bar: 50 um. FIG. 3D depicts bisulfite sequencing of neurons in FIG. 3C. […] Shown is the mean percentage±SD of two biological replicates.
FIGS. 11A-11L depict targeted demethylation of BDNF promoter IV by dCas9-Tet1 in neurons. […] PAM for each gRNA is highlighted by a red box. […] Note that cultured neurons were treated with AraC on DIV2 to halt cell division in glial cells and neural progenitors. […] FIG. 11C provides EDU labeling analysis for the mouse primary neurons over the course of KCl treatment for 24 hrs. Note that extremely few EDU positive cells were observed. Stained in red for EDU, green for MAP2 and DAPI for nuclei. Scale bar: 500 um. FIG. 11D Upper panel: provides quantification of neuronal density over the course of KCl treatment. The post-mitotic neuron density remains steadily around 4.5×10^4/cm2 over time. Bars represent mean±SD of three experimental replicates. Lower panel: provides quantification of the EDU positive cells over the course of KCl treatment. Less than 2% of the cells are EDU-positive over 24 hrs. Bars represent mean±SD of three experimental replicates. FIG. 11E provides confocal micrographs of BDNF induction by ectopic expression of dCas9-Tet1 and a set of 4 gRNAs targeting BDNF promoter IV. Stained in green for BDNF, magenta for MAP2, red for Cherry and blue for DAPI. Note that the lentiviral infection efficiency is close to 100% in these neurons. Scale bar: 50 um. […] Bars represent mean±SD of three experimental replicates. […] FIG. 11J depicts DIV3 mouse cortical neurons were treated with ABT (50 uM) for 6 hours and then treated with KCl (50 mM) for 6-hour before harvest for RT-qPCR analysis. Bars represent mean±SD of three experimental replicates. FIG. 11K depicts DIV3 mouse cortical neurons were treated with 2-Hydroxyglutarate (10 mM) for 2 hours and then treated with KCl (50 mM) for 6-hour before harvest for RT-qPCR analysis. Bars represent mean±SD of three experimental replicates. FIG. 11L depicts DIV3 mouse cortical neurons derived from wild-type or Tet1 knockout E17.5 embryos were subject to time course KCl treatment experiments (6, 9 and 12 h). Bars represent mean±SD of three experimental replicates.
DNA replication-independent active demethylation has been proposed to operate in post-mitotic neurons (Guo et al., 2011; Martinowich et al., 2003). To test whether active demethylation can be induced in post-mitotic neurons, we applied the dCas9-Tet1 system to study the regulation of the BDNF gene. BDNF expression can be induced by neuronal activity accompanied by demethylation of its promoter IV (Chen et al., 2003; Martinowich et al., 2003). We designed 4 gRNAs targeting 11 CpGs in BDNF promoter IV (FIG. 11A) to determine whether dCas9-Tet1 can activate BDNF by inducing demethylation of this promoter (FIG. 3A). Mouse cortical neurons were isolated from E17.5 embryos and cultured for two days in vitro (DIV2) following a well-established experimental procedure for producing primary neuronal culture (Ebert et al., 2013). […] Neurons at day 3 in culture (DIV3) were infected with lentiviral vectors expressing dCas9-Tet1 with or without the 4 gRNAs at almost 100% transduction efficiency (FIG. 11E). At 48-hour post infection some of the cultures were treated with KCl to induce neuronal activity. […] We performed bisulfite sequencing to examine the methylation state of BDNF promoter IV. […]

Where [1] appears, read: with 4 gRNAs targeting BDNF promoter IV, DIV3 neurons, lentiviral infection 2 days.

Regarding “dC-dT: dCas9 fused to an inactive mutant form of Tet1 (H1672Y, D1674A), SEQ ID NO: 160”, the “induction of BDNF expression” value under setting [1] was “no induction”.
Take “dCas9-Tet1: catalytically inactive Cas9 (dCas9) fused through NLS to the Tet1 catalytic domain, SEQ ID NO: 159; lentivirally expressed with gRNAs”: the “induction of BDNF expression” value runs as follows: (in the absence of gRNAs, DIV3 neurons, lentiviral infection 2 days) “less than 2 fold”; under setting [1], “about 6 fold”; (with each individual gRNA targeting BDNF promoter IV) 2-3 fold.
